Results: patent US7361633B2, “Screening method and anti-tumor drug candidate obtained therefrom” (Ardana Bioscience Limited, priority 2002, dated 2008)
Entries after “also recorded” stand apart in the source; their conditions may differ.

What was measured:
JEG-3 cells = test: Annexin V-FITC staining of extracellular phosphatidylserine (apoptosis) in JEG-3 cells; format: cell-based, human; details: for extracellular annexin-V-reactive phosphatidylserine: 100 nM
Description: All twelve panels depict either phase contrast (1, 4, 7, 10), confocal laser microscope (2, 5, 8, 11) or phase contrast/confocal merged images (3, 6, 9, 12). Panels 1 to 3 depict untreated control JEG-3 cells for cells in panels 4 to 6 which have been treated with GnRH I (100 nM) for 24 h. All cells have been exposed while live to an annexin V recombinant protein conjugated to the FITC fluorophore. The annexin V will bind specifically only to phosphatidlyserine (PS) lipids usually only expressed on the intracellular side of the plasma membrane lipid bilayer. An early sign of apoptosis is the translocation of these PS lipids from the intracellular side of the membrane to the outer aspect of the bilayer. […] Panels 10 to 12 depict cells exposed to GnRH I for 48 h while panels 7 to 9 serve as unstimulated contemporaneous controls. […] The cellular levels of caspase 3 and procaspase 3 were assessed by specific immunoblotting of JEG-3 or BPH-1 whole cell (w-c) lysates from cells stimulated continuously with GnRH I for the times depicted.
A similar experimental approach was employed for the transfer of this study to BPH-1 cells, however as the MAPK under study in these cells was p38α much lower dose of SB203580 (1 μM) could be employed as the compound has a much greater inhibitory potency against p38 compared to JNK.
Thus we have shown that upon continuous GnRH ligand stimulation of either JEG-3 or BPH-1 there is a retardation of cell growth, however we were interested as to whether there was any genuine induction of cellular apoptosis recently reported to occur in several tumour cell lines (Soon et al (2002) J. Clin. Endocrinol. Metab. 87, 4580-4586). […] Initially we measured the effects of GnRH stimulation upon the ultrastructural integrity of the cells plasma membrane. A well documented early event in apoptosis is a reversal in the polarity of many plasma membrane molecules such as phosphatidylserine (PS). At an early stage of cellular apoptosis there is a significant translocation of PS from the inner to the outer envelope of the plasma membrane. […]

BPH-1 cells = test: Annexin V-FITC staining of extracellular phosphatidylserine (apoptosis) in BPH-1 cells; format: cell-based, human; details: 48 h
Description: All twelve panels depict either phase contrast (1, 4, 7, 10), confocal laser microscope (2, 5, 8, 11) or phase contrast/confocal merged images (3, 6, 9, 12). Panels 1 to 3 depict untreated control JEG-3 cells for cells in panels 4 to 6 which have been treated with GnRH I (100 nM) for 24 h. All cells have been exposed while live to an annexin V recombinant protein conjugated to the FITC fluorophore. The annexin V will bind specifically only to phosphatidlyserine (PS) lipids usually only expressed on the intracellular side of the plasma membrane lipid bilayer. An early sign of apoptosis is the translocation of these PS lipids from the intracellular side of the membrane to the outer aspect of the bilayer. […] The cellular levels of caspase 3 and procaspase 3 were assessed by specific immunoblotting of JEG-3 or BPH-1 whole cell (w-c) lysates from cells stimulated continuously with GnRH I for the times depicted. […]
Thus we have shown that upon continuous GnRH ligand stimulation of either JEG-3 or BPH-1 there is a retardation of cell growth, however we were interested as to whether there was any genuine induction of cellular apoptosis recently reported to occur in several tumour cell lines (Soon et al (2002) J. Clin. Endocrinol. Metab. 87, 4580-4586). […] Initially we measured the effects of GnRH stimulation upon the ultrastructural integrity of the cells plasma membrane. […]

PLC-β = test: Inositol phosphate accumulation in BPH-1 cells; format: cell-based, human; details: for inositol phosphate accumulation: 60 minutes, 10 mM LiCl, doses up to 50 μM
Description: BPH-1 cells were pre-incubated with ^3H-myoinositol (1 μCi/ml) for 48 h prior to ligand stimulation (60 minutes). Ligand stimulated inositol phosphate production was measured in the presence of 10 mM LiCl. […] IP accumulation can be used as a read out/marker for Gαq activation since the activation of PLCβ is PTX-resistant.

[1] = biological target: T1, marmoset Type II GnRH receptor (Callithrix jacchus, UniProt Q95MG6); test: Inositol phosphate accumulation in αT4-II cells; format: cell-based; details: GnRH II 10 nM
T1 construct: expressed in transfected cells
T1 sequence (Q95MG6 1-380): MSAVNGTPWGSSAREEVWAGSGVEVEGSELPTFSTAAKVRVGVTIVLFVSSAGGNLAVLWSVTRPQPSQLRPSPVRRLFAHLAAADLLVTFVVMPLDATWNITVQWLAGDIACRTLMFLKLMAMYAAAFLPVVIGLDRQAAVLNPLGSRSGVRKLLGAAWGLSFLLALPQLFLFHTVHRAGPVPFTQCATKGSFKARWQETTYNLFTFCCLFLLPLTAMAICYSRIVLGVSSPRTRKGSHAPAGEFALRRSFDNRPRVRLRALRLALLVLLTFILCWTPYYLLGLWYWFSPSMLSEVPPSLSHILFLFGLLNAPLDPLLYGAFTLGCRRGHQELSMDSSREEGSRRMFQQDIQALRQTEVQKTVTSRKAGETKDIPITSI
Description: The histograms in panels a and b represent inositol phosphate accumulation data from HEK293 cells stably expressing the Type I GnRH receptor only (SCL60). […] In panels c and d, the liberated inositol phosphates generated were measured in the proto-gonadotrope cells (αT4) stably expressing the marmoset Type II GnRH receptor (designated αT4-II).
The ability of the four major agents under study at activating ectopically expressed Type I or Type II GnRHR were tested (FIG. 12). The classical signal transduction cascade activated by GnRHR stimulation is the Gαq-PLC-β cascade. Both Type I and II receptor can stimulate the Gαq-PLC type-G-protein and activate PLC-β which cleaves phosphatidylinositol bisphosphate (PIP2) into inositol trisphosphate (IP3), other lower inositol phosphates (IPn) and diacylglycerol (DAG). The major function of IP3 is to elevate intracellular Ca^2+ while DAG causes the activation of specific PKC (protein kinase C) isoforms.
Panels a and b of FIG. 12 depict the generation of free cytoplasmic ^3H-myo-inositols on the plasma membranes of HEK293 cells expressing the Type I GnRHR and of αT4 gonadotropes expressing the marmoset Type II GnRHR. Prior to agonist stimulation the respective cells were incubated in inositol-free growth media supplemented with 1 μCi/ml ^3H-myoinositol for 48 h. G protein coupled receptor (GPCR)-induced activation of PLC-β results in the cleavage of PIP2 (incorporating tritium ^3H) into free lower inositol phosphates (IPns).

C[S+]([O-])c1ccc(-c2nc(-c3ccncc3)c(-c3ccc(F)cc3)[nH]2)cc1 (centres unmarked) [SB203580]
effect on GnRH I-induced annexin V-FITC staining (pro-apoptotic state) (JEG-3 cells; 20 μM SB203580 with 100 nM GnRH I, 48 h): significant reduction in extent of cells entering a pro-apoptotic state; also recorded: significant reduction in the degree of annexin-V-FITC staining
effect on GnRH I-induced annexin V-FITC staining (pro-apoptotic state) (BPH-1 cells; 1 μM SB203580 with GnRH I): prevented GnRH from inducing a pro-apoptotic state in the BPH-1 cells; also recorded: almost completely abrogated

Ac-D-Nal(2)-D-4-ClPhe-D-Pal-Ser-1-MePal-D-IsopropylLys-Leu-IsopropylLys-Pro-D-AlaNH2 [Ant 135-25]
inositol phosphate accumulation (PLC-β): only high doses of GnRH I and Ant 135-25 cause any significant accumulation of inositol phosphates; also recorded: small capacity to induce inositol phosphate accumulation
agonistic activity: liberated inositol phosphates at marmoset Type II GnRH receptor [1]: do not cause any liberation of free inositol phosphates
agonistic activity: liberated inositol phosphates at marmoset Type II GnRH receptor ([1]; listed as 135-25): no IPn-generating capacity
agonistic activity: liberated inositol phosphates at marmoset Type II GnRH receptor ([1]; listed as Ant135-25): no partial activity at all; also recorded: fails to show any agonistic activity at the Type II marmoset GnRHR
agonistic activity: liberated inositol phosphates at marmoset Type II GnRH receptor ([1]; listed as antagonist 135-25): failed to generate significant free inositol phosphate

Ac-D-Nal(2)-D-4-ClPhe-D-Pal-Ser-Ile-D-IsopropylLys-Leu-IsopropylLys-Pro-D -AlaNH2 [Ant 135-18]
agonistic activity: liberated inositol phosphates at marmoset Type II GnRH receptor [1]: considerable partial agonistic activity; also recorded: dose-dependent agonistic activity
agonistic activity: liberated inositol phosphates at marmoset Type II GnRH receptor ([1]; listed as 135-18): only the Type II receptor was activated by 135-18

GnRH I: Gonadotropin-Releasing Hormone, a decapeptide; the original form of GnRH, re-named GnRH I
extracellular annexin-V-reactive phosphatidylserine (JEG-3 cells; 24 h): no significant expression of annexin-V-reactive PS on the extracellular surface of the plasma membrane
extracellular annexin-V-reactive phosphatidylserine (JEG-3 cells; 48 h): significant expression of extracellular annexin-V-reactive PS; also recorded: cells begin to become anti-annexin V-FITC immunoreactive; also recorded: considerable amount of external membrane annexin-V-reactive PS
extracellular annexin-V-reactive phosphatidylserine (BPH-1 cells): Identical results; also recorded: significant induction of annexin-V-FITC reactivity on the outer plasma membrane envelope
inositol phosphate accumulation (PLC-β): only high doses of GnRH I and Ant 135-25 cause any significant accumulation of inositol phosphates; also recorded: small capacity to induce inositol phosphate accumulation
effect of pertussis toxin pre-incubation on induced inositol phosphate accumulation (PLC-β; PTX 200 ng/ml 16 h, GnRH I 50 μM): abrogated by a 16 h pre-incubation of the BPH-1 cells with 200 ng/ml of pertussis toxin
